From patent publication US20220073536A1 (Rigel Pharmaceuticals, Inc., priority 2003, published 2022)

How the values were obtained:
[1] = system: cultured human mast cells (CHMC); test: CHMC low cell density IgE activation: tryptase assay; type: cell-based; details: IgE activation
How it was run: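 Anti-IgE-driven degranulation of cultured human mast cells at low density, 1000–1500 cells/well, was induced over 30 min at 37 °C. It was scored by supernatant tryptase activity on a fluorogenic substrate.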

[2] = system: cultured human mast cells (CHMC); test: CHMC low cell density ionomycin activation: tryptase assay; type: cell-based; details: 3 pt, read-out: LD Tryptase, CHMC, Iono, 3 pt
[3] = low cell density, 3 pt, read-out: LD Tryptase, CHMC, IgE, 3 pt
[4] = Homo sapiens, Mast cell, low cell density, 3 pt, read-out: LD Tryptase, CHMC, IgE, 3 pt
[5] = Homo sapiens, Mast cell, low cell density, 8 pt, read-out: LD Tryptase, CHMC, IgE, 8 pt
[6] = Homo sapiens, Mast cell, low cell density
[7] = low cell density CHMC, tryptase readout, 3 pt, read-out: LD Tryptase, CHMC, IgE, 3 pt
[8] = low cell density CHMC, tryptase readout, 8 pt, read-out: LD Tryptase, CHMC, IgE, 8 pt
[9] = low cell density CHMC, tryptase readout
[10] = Homo sapiens, Mast cell, low cell density CHMC, tryptase readout, 3 pt, read-out: LD Tryptase, CHMC, IgE, 3 pt
[11] = Homo sapiens, Mast cell, low cell density CHMC, tryptase readout, 8 pt, read-out: LD Tryptase, CHMC, IgE, 8 pt
[12] = Homo sapiens, Mast cell, low cell density CHMC, tryptase readout

Row | Compound | IC50 [1, 7] [µM] | IC50 [2, 9] [µM] | IC50 [1, 10] [µM] | IC50 [2, 12] [µM] | also measured
1 | Cc1cc(Nc2ncc(F)c(Nc3ccc4c(n3)NC(=O)C(C)(C)O4)n2)cc(Cl)c1O [Compound 996, N2-(3-Chloro-4-hydroxy-5-methylphenyl)-N4-(2,2-dimethyl-3-oxo-4H-5-pyrid[1,4]oxazin-6-yl)-5-fluoro-2,4-pyrimidinediamine] | – | – | – | – | IC50 [1, 3]: < 10 µM; IC50 ([1]; low cell density, 8 pt, read-out: LD Tryptase, CHMC, IgE, 8 pt): < 10 µM; IC50 ([2]; low cell density): > 10 µM
2 | COc1c(C)cc(Nc2ncc(F)c(Nc3ccc4c(n3)NC(=O)C(C)(C)O4)n2)cc1C [Compound 997, N2-(3,5-Dimethyl-4-methoxyphenyl)-N4-(2,2-dimethyl-3-oxo-4H-5-pyrid[1,4]oxazin-6-yl)-5-fluoro-2,4-pyrimidinediamine] | – | – | – | – | IC50 [1, 4]: < 10 µM; IC50 [1, 5]: < 10 µM; IC50 [2, 6]: > 10 µM
3 | COc1c(C)cc(Nc2ncc(F)c(Nc3ccc4c(c3)OCCO4)n2)cc1C [Compound 998] | – | – | – | – | IC50 [1, 4]: < 10 µM; IC50 [1, 5]: < 10 µM; IC50 [2, 6]: > 10 µM
4 | COc1c(C)cc(Nc2ncc(F)c(Nc3ccc4c(c3)OCCO4)n2)cc1Cl [Compound 999] | – | – | – | – | IC50 [1, 4]: < 10 µM; IC50 [1, 5]: < 10 µM; IC50 [2, 6]: < 10 µM
5 | Cc1ccccc1Nc1ncc(F)c(Nc2ccc3c(n2)NC(=O)C(C)(C)O3)n1 [Compound 1004, N4-(2,2-Dimethyl-3-oxo-4H-5-pyrid[1,4]oxazin-6-yl)-5-fluoro-N2-(2-methylphenyl)-2,4-pyrimidinediamine] | – | – | – | – | IC50 [1, 3]: < 10 µM; IC50 ([2]; low cell density): > 10 µM
6 | CN1C(=O)C(C)(C)Oc2ccc(N(C)c3nc(Cl)ncc3F)nc21 [Compound 1005, 2-Chloro-5-fluoro-N4-methyl-N4-(3-oxo-2,2,4-trimethyl-5-pyrid[1,4]oxazin-6-yl)-4-pyrimidineamine] | – | – | – | – | IC50 [1, 3]: < 10 µM; IC50 ([2]; low cell density): > 10 µM
7 | CN1C(=O)C(C)(C)Oc2ccc(Nc3nc(Cl)ncc3F)nc21 [Compound 1006, 2-Chloro-5-fluoro-N4-(3-oxo-2,2,4-trimethyl-5-pyrid[1,4]oxazin-6-yl)-4-pyrimidineamine] | – | – | – | – | IC50 [1, 3]: > 10 µM; IC50 ([2]; low cell density): > 10 µM
8 | CCOc1c(C)cc(Nc2ncc(F)c(Nc3ccc4c(c3)NC(=O)C(C)(C)O4)n2)cc1Cl [Compound 1008, N2-(3-Chloro-4-ethoxy-5-methylphenyl)-N4-(2,2-dimethyl-3-oxo-4H-benz[1,4]oxazin-6-yl)-5-fluoro-2,4-pyrimidinediamine] | – | – | – | – | IC50 [1, 4]: < 10 µM; IC50 [1, 5]: < 10 µM; IC50 [2, 6]: < 10 µM
9 | CCOc1c(C)cc(Nc2ncc(F)c(Nc3ccc4c(n3)NC(=O)C(C)(C)O4)n2)cc1Cl [Compound 1010, N2-(3-Chloro-4-ethoxy-5-methylphenyl)-N4-(2,2-dimethyl-3-oxo-4H-5-pyrid[1,4]oxazin-6-yl)-5-fluoro-2,4-pyrimidinediamine] | < 10 | > 10 | – | – | –
10 | CCOC(=O)COc1c(C)cc(Nc2ncc(F)c(Nc3ccc4c(c3)NC(=O)C(C)(C)O4)n2)cc1Cl [Compound 1014, N2-[3-Chloro-4-ethoxycarbonylmethyleneoxy-5-methylphenyl]-N4-(2,2-dimethyl-3-oxo-4H-benz[1,4]oxazin-6-yl)-5-fluoro-2,4-pyrimidinediamine] | < 10 | < 10 | – | – | IC50 [1, 8]: < 10 µM
11 | Cc1cc(Nc2ncc(F)c(Nc3ccc4c(c3)NC(=O)C(C)(C)O4)n2)cc(Cl)c1OC1CCCC1 [Compound 1018, N2-[3-Chloro-4-cyclopentyloxy-5-methylphenyl]-N4-(2,2-dimethyl-3-oxo-4H-benz[1,4]oxazin-6-yl)-5-fluoro-2,4-pyrimidinediamine] | – | – | < 10 | > 10 | IC50 [1, 11]: < 10 µM
12 | CNC(=O)COc1cccc(Nc2ncc(F)c(N(C)c3ccc4c(c3)NC(=O)C(C)(C)O4)n2)c1 [Compound 1022, N4-(2,2-Dimethyl-3-oxo-4H-benz[1,4]oxazin-6-yl)-5-fluoro-N4-methyl-N2-[3-(N-methylamino)carbonylmethyleneoxyphenyl]-2,4-pyrimidinediamine] | < 10 | > 10 | – | – | IC50 [1, 8]: < 10 µM
13 | CN(c1ccc2c(c1)NC(=O)C(C)(C)O2)c1nc(Nc2cccc(-c3cnco3)c2)ncc1F [Compound 1023, N4-(2,2-Dimethyl-3-oxo-4H-benz[1,4]oxazin-6-yl)-5-fluoro-N4-methyl-N2-[3-(oxazol-5-yl)phenyl]-2,4-pyrimidinediamine] | – | – | < 10 | > 10 | IC50 [1, 11]: < 10 µM
14 | Cc1cc(Nc2ncc(F)c(Nc3ccc4c(n3)NC(=O)C(C)(C)O4)n2)cc(Cl)c1OC1CCCC1 [Compound 1027, N2-(3-Chloro-4-cyclopentyloxy-5-methylphenyl)-N4-(2,2-dimethyl-3-oxo-4H-5-pyrid[1,4]oxazin-6-yl)-5-fluoro-2,4-pyrimidinediamine] | < 10 | > 10 | – | – | –

Further lines, with some results ahead:

Row | IC50 [1, 7] [µM] | IC50 [2, 9] [µM] | IC50 [1, 10] [µM] | IC50 [2, 12] [µM] | Compound | also measured
15 | < 10 | > 10 | – | – | COc1c(C)cc(Nc2ncc(F)c(Nc3ccc4c(n3)N(C)C(=O)C(C)(C)O4)n2)cc1Cl [Compound 1009, N2-(3-Chloro-4-methoxy-5-methylphenyl)-5-fluoro-N4-(3-oxo-2,2,4-trimethyl-5-pyrid[1,4]oxazin-6-yl)-2,4-pyrimidinediamine] | IC50 [1, 8]: < 10 µM
16 | – | – | < 10 | > 10 | CC1(C)Oc2ccc(Nc3nc(Nc4ccc(-c5ncco5)cc4)ncc3F)cc2NC1=O [Compound 1011, N4-(2,2-Dimethyl-3-oxo-4H-benz[1,4]oxazin-6-yl)-5-fluoro-N2-[4-(oxazol-2-yl)phenyl]-2,4-pyrimidinediamine] | IC50 [1, 11]: < 10 µM
17 | < 10 | > 10 | – | – | CN1C(=O)C(C)(C)Oc2ccc(Nc3nc(Nc4cccc(-c5ncco5)c4)ncc3F)nc21 [Compound 1012, 5-Fluoro-N2-[3-(oxazol-2-yl)phenyl]-N4-[3-oxo-2,2,4-trimethyl-5-pyrid[1,4]oxazin-6-yl]-2,4-pyrimidinediamine] | IC50 [1, 8]: < 10 µM
18 | < 10 | > 10 | – | – | CN1C(=O)C(C)(C)Oc2ccc(Nc3nc(Nc4ccc(-c5ncco5)cc4)ncc3F)nc21 [Compound 1013, 5-Fluoro-N2-[4-(oxazol-2-yl)phenyl]-N4-[3-oxo-2,2,4-trimethyl-5-pyrid[1,4]oxazin-6-yl]-2,4-pyrimidinediamine] | –
19 | < 10 | > 10 | – | – | CNC(=O)COc1cccc(Nc2ncc(F)c(Nc3ccc4c(n3)N(C)C(=O)C(C)(C)O4)n2)c1 [Compound 1015, 5-Fluoro-N2-[3-(N-methylamino)carbonylmethyleneoxyphenyl]-N4-[3-oxo-2,2,4-trimethyl-5-pyrid[1,4]oxazin-6-yl]-2,4-pyrimidinediamine] | IC50 [1, 8]: < 10 µM
20 | – | – | < 10 | > 10 | CC1(C)Oc2ccc(Nc3nc(Nc4cccc(-c5cnco5)c4)ncc3F)cc2NC1=O [Compound 1016, N4-(2,2-Dimethyl-3-oxo-4H-benz[1,4]oxazin-6-yl)-5-fluoro-N2-[3-(oxazol-5-yl)phenyl]-2,4-pyrimidinediamine] | IC50 [1, 11]: < 10 µM
21 | < 10 | > 10 | – | – | CN1C(=O)C(C)(C)Oc2ccc(Nc3nc(Nc4cccc(-c5cnco5)c4)ncc3F)nc21 [Compound 1017, 5-Fluoro-N2-[3-(oxazol-5-yl)phenyl]-N4-[3-oxo-2,2,4-trimethyl-5-pyrid[1,4]oxazin-6-yl]-2,4-pyrimidinediamine] | IC50 [1, 8]: < 10 µM
22 | – | – | < 10 | > 10 | CN(c1ccc2c(c1)NC(=O)C(C)(C)O2)c1nc(Nc2cccc(-c3ncco3)c2)ncc1F [Compound 1019, N4-(2,2-Dimethyl-3-oxo-4H-benz[1,4]oxazin-6-yl)-5-fluoro-N4-methyl-N2-[3-(oxazol-2-yl)phenyl]-2,4-pyrimidinediamine] | IC50 [1, 11]: < 10 µM
23 | – | – | < 10 | > 10 | CC1(C)Oc2ccc(Nc3nc(Nc4ccc(-c5cnco5)cc4)ncc3F)cc2NC1=O [Compound 1020, N4-(2,2-Dimethyl-3-oxo-4H-benz[1,4]oxazin-6-yl)-5-fluoro-N2-[4-(oxazol-5-yl)phenyl]-2,4-pyrimidinediamine] | IC50 [1, 11]: < 10 µM
24 | – | – | < 10 | < 10 | CN(c1ccc2c(c1)NC(=O)C(C)(C)O2)c1nc(Nc2ccc(-c3ncco3)cc2)ncc1F [Compound 1021] | IC50 [1, 11]: < 10 µM
25 | – | – | < 10 | < 10 | CN1C(=O)C(C)(C)Oc2ccc(N(C)c3nc(Nc4ccc(-c5ncco5)cc4)ncc3F)cc21 [Compound 1024] | –
26 | – | – | < 10 | < 10 | CN1C(=O)C(C)(C)Oc2ccc(N(C)c3nc(Nc4cccc(-c5ncco5)c4)ncc3F)cc21 [Compound 1025, 5-Fluoro-N4-methyl-N2-[3-(oxazol-2-yl)phenyl]-N4-(3-oxo-2,2,4-trimethylbenz[1,4]oxazin-6-yl)-2,4-pyrimidinediamine] | –
27 | – | – | < 10 | > 10 | CN1C(=O)C(C)(C)Oc2ccc(N(C)c3nc(Nc4ccc(-c5cnco5)cc4)ncc3F)cc21 [Compound 1026] | –
28 | < 10 | > 10 | – | – | CC1(C)Oc2ccc(Nc3nc(Nc4cccc(-c5ncco5)c4)ncc3F)nc2NC1=O [Compound 1028, N4-(2,2-Dimethyl-3-oxo-4H-5-pyrid[1,4]oxazin-6-yl)-5-fluoro-N2-[3-(oxazol-2-yl)phenyl]-2,4-pyrimidinediamine] | IC50 [1, 8]: < 10 µM
